Assay [1] concerns the target T1, Pyruvate kinase PKLR (Homo sapiens, UniProt P30613). The assay can be described thus: Activation of wild type PKR (unknown origin) incubated for 60 mins in presence of ADP, PEP and NADH by Spectraax microplate reader based assay.
The target of assay [2] is T1, Pyruvate kinase PKLR. Description: Activation of wild type PKR (unknown origin) by cell based assay.
Assay [3] addresses Pyruvate kinase PKLR (Homo sapiens, UniProt P30613, R532W). Description: Activation of PKR R532W mutant (unknown origin) incubated for 60 mins in presence of ADP, PEP and NADH by Spectraax microplate reader based assay.

T1 sequence (P30613 whole entry): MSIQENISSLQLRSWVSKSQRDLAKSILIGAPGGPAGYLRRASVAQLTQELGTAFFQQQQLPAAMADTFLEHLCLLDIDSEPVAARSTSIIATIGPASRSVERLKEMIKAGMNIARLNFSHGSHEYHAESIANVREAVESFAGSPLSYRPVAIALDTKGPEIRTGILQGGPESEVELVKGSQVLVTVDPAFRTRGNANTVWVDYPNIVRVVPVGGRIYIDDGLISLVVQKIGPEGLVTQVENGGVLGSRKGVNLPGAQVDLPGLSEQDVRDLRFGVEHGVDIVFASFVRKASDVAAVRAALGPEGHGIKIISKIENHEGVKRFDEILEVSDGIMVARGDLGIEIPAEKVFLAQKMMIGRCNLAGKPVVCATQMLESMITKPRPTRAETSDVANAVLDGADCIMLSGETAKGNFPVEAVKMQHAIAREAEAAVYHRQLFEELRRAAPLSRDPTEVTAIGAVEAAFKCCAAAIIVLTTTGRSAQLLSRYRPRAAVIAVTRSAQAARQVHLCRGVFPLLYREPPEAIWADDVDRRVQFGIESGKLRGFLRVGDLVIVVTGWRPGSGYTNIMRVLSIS
Chain of Pyruvate kinase PKLR (Homo sapiens, UniProt P30613, R532W) (P30613 whole entry R532W): as the sequence (P30613 whole entry) above, with R532W counted along it

Consider `CC(F)(F)CCC1(O)CCN(C(=O)c2ccc(NS(=O)(=O)c3cccc4nccnc34)cc2)CC1`, for which the AC50 at Pyruvate kinase PKLR [1] and on Pyruvate kinase PKLR [2] was less than 100 nM throughout.
Turning to `Cn1cc(C2(O)CCN(C(=O)c3ccc(NS(=O)(=O)c4cccc5scnc45)cc3)CC2)cn1`, the AC50 at Pyruvate kinase PKLR [3] and on Pyruvate kinase PKLR [2] was less than 100 nM throughout.
With `CC(C)(F)CC1(O)CCN(C(=O)c2ccc(NS(=O)(=O)c3cccc4scnc34)cc2)CC1`, the AC50 on Pyruvate kinase PKLR [3] and on Pyruvate kinase PKLR [2] was less than 100 nM throughout.
For the molecule `CC(C)CC1(OC(=O)OCOP(=O)(O)O)CCN(C(=O)c2ccc(NS(=O)(=O)c3cccc4scnc34)cc2)CC1`, the AC50 on Pyruvate kinase PKLR [2] was less than 100 nM.
Same read-out and setting: the same measure for `O=C(c1ccc(NS(=O)(=O)c2cccc3nccnc23)cc1)N1CCC(O)(c2sncc2Cl)CC1`: less than 100 nM.
With `Cc1n[nH]c(C)c1CC1(O)CCN(C(=O)c2ccc(NS(=O)(=O)c3cccc4scnc34)cc2)CC1`, the AC50 on Pyruvate kinase PKLR [3] and at Pyruvate kinase PKLR [1] was less than 100 nM in each case.
Consider `CC(C)CC1(OP(=O)(O)O)CCN(C(=O)c2ccc(NS(=O)(=O)c3cccc4scnc34)cc2)CC1`, for which the AC50 on Pyruvate kinase PKLR [3] and at Pyruvate kinase PKLR [1] was more than 10000 nM in each case.
Take `O=C(c1ccc(NS(=O)(=O)c2cccc3nccnc23)cc1)N1CCC(O)(c2ccccc2)CC1`: at Pyruvate kinase PKLR [2], the AC50 is less than 100 nM.
On to `O=C(c1ccc(NS(=O)(=O)c2cccc3cccnc23)cc1)N1CCC(O)(c2ncccc2F)CC1`, for which the AC50 at Pyruvate kinase PKLR [3] and at Pyruvate kinase PKLR [1] was less than 100 nM throughout.
`CC(C)CC1(OC(=O)OCOP(=O)(O)O)CCN(C(=O)c2ccc(NS(=O)(=O)c3cccc4nccnc34)cc2)CC1` returned an AC50 on Pyruvate kinase PKLR [2] of less than 100 nM.
With `CC(C)(O)CCCC1(O)CCN(C(=O)c2ccc(NS(=O)(=O)c3cccc4nccnc34)cc2)CC1`, the AC50 at Pyruvate kinase PKLR [3] and on Pyruvate kinase PKLR [1] was more than 10000 nM each time.
Consider `CS(=O)(=O)c1cccc(C2(O)CCN(C(=O)c3ccc(NS(=O)(=O)c4cccc5cccnc45)cc3)CC2)c1`, for which the AC50 at Pyruvate kinase PKLR [1] and on Pyruvate kinase PKLR [2] was less than 100 nM throughout.
Turning to `COc1ncccc1C1(O)CCN(C(=O)c2ccc(NS(=O)(=O)c3cccc4cccnc34)cc2)CC1`, the AC50 at Pyruvate kinase PKLR [3] and on Pyruvate kinase PKLR [1] was less than 100 nM throughout.
In the case of `O=C(c1ccc(NS(=O)(=O)c2cc(F)cc3cccnc23)cc1)N1CCC(O)(c2ccccc2)CC1`, the AC50 at Pyruvate kinase PKLR [3] and on Pyruvate kinase PKLR [1] was less than 100 nM throughout.
Consider `CC(C)CC1(O)CCN(C(=O)c2ccc(NS(=O)(=O)c3cccc(O)c3N)cc2)CC1`, for which the AC50 at Pyruvate kinase PKLR [1] and at Pyruvate kinase PKLR [2] was less than 100 nM throughout.
Consider `O=C(c1ccc(NS(=O)(=O)c2cccc3scnc23)cc1)N1CCC(O)(c2scnc2Cl)CC1`, for which the AC50 at Pyruvate kinase PKLR [3] and at Pyruvate kinase PKLR [1] was less than 100 nM throughout.
Turning to `Cc1noc(C)c1CC1(O)CCN(C(=O)c2ccc(NS(=O)(=O)c3cccc4scnc34)cc2)CC1`, the AC50 on Pyruvate kinase PKLR [3] and on Pyruvate kinase PKLR [1] was less than 100 nM throughout.
`C=C(C)CC1(O)CCN(C(=O)c2ccc(NS(=O)(=O)c3cccc4scnc34)cc2)CC1`: the concentration at half-maximal activity (AC50) on Pyruvate kinase PKLR [3] and on Pyruvate kinase PKLR [1] was less than 100 nM throughout.
`Nc1nc2c(S(=O)(=O)Nc3ccc(C(=O)N4CCC(O)(CCC(F)(F)F)CC4)cc3)cccc2s1`: the AC50 at Pyruvate kinase PKLR [3] and on Pyruvate kinase PKLR [1] was less than 100 nM in each case.
On to `O=C(c1ccc(NS(=O)(=O)c2cccc3scnc23)cc1)N1CCC(O)(CC2CC2)CC1`, for which the AC50 on Pyruvate kinase PKLR [3] and on Pyruvate kinase PKLR [1] was less than 100 nM each time.
As to `O=C(c1ccc(NS(=O)(=O)c2cccc3cccnc23)cc1)N1CCC(O)(c2ccccc2O)CC1`, the AC50 on Pyruvate kinase PKLR [3] and on Pyruvate kinase PKLR [2] was less than 100 nM throughout.
For `COc1ccccc1C1(O)CCN(C(=O)c2ccc(NS(=O)(=O)c3cccc4cccnc34)cc2)CC1`, the AC50 at Pyruvate kinase PKLR [3] and at Pyruvate kinase PKLR [1] was less than 100 nM each time.
Turning to `Nc1c(O)cccc1S(=O)(=O)Nc1ccc(C(=O)N2CCC(O)(c3ccccc3Cl)CC2)cc1`, the AC50 on Pyruvate kinase PKLR [1] and at Pyruvate kinase PKLR [2] was less than 100 nM in each case.
Take `O=C(c1ccc(NS(=O)(=O)c2cccc3cnccc23)cc1)N1CCC(O)(c2ccccc2)CC1`: the AC50 on Pyruvate kinase PKLR [3] and at Pyruvate kinase PKLR [1] was more than 10000 nM in each case.
On to `CC(C)CC1(CO)CCN(C(=O)c2ccc(NS(=O)(=O)c3cccc4nccnc34)cc2)CC1`, for which the AC50 at Pyruvate kinase PKLR [3] and at Pyruvate kinase PKLR [1] was less than 100 nM each time.

Broadly, the AC50 is the concentration at which the activity in the assay is half-maximal.

The record behind these values is ChEMBL document CHEMBL3727356, “Therapeutic compounds and compositions” (2014).
